In patent US20130014428A1, “METHODS OF MONITORING AND CONTROLLING THE WALNUT TWIG BEETLE, PITYOPHTHORUS JUGLANDIS” (The United States of America as Represented by the …, priority 2011, published 2013):

What was measured:
WTB [1] = assay: Trap height: clear plexiglass panel traps baited with X; type: in vivo, Pityophthorus juglandis; details: 5 mg/d, 15 ml load
Procedure: Effect of Trap Height on Trap Catch. The flight response of WTB to clear plexiglass panel traps coated with Stikem Special (Seabright Labs, Emeryville, Calif.) and baited with 3-methyl-2-buten-1-ol (5 mg/d, 15 ml load, polyethylene bottle) located at three heights (2, 3, and 4 m above the forest floor) was tested. The traps were placed in the crowns of J. hindsii located in a native riparian stand at Shadow Cliffs Regional Park, Alameda Co., Calif. from early to mid-spring. Both sides of a single 23 cm×14 cm sheet of clear plexiglass were covered with Stikem Special adhesive and the sheet was hung from string at each of the 3 heights from a single J. hindsii branch. The aggregation pheromone bait was hung immediately above each trap. Each group of three traps was assigned a unique position within the stand and treated as a block in a completely randomized block design (N=22). Traps within a block were all collected on the same day; blocks were collected after 2 to 7 days (after periodic flights of WTB).
(§1) Statistical Analyses. Analyses of treatment effects for the tests of trap type were performed by using Friedman's non-parametric analysis of variance or a sign test, depending on the number of treatments. (See Zar, J. H. 2010. Biostatistical Analysis. 5th ed. Pearson Prentice Hall, Englewood Cliffs, N.J.) Analysis of treatment effects for the Rain•X experiment was performed by using a Wilcoxon paired sample test. Id. Multiple comparisons for experiments with more than two treatments were performed with an a posteriori Nemenyi test with experimentwise α=0.05. Id. In all cases, male and female WTB were analyzed separately. Proportions of female WTB responding to treatments were calculated and 95% confidence intervals determined by using the Clopper-Pearson method. Id.

WTB [2] = assay: Example 2 Field Test 3: X and racemic trans-pityol; type: in vivo, Pityophthorus juglandis; details: 4-unit Lindgren funnel traps
Procedure: Finally, a flight bioassay of the effect of the compound racemic trans-“pityol” [2-(1-hydroxy-1-methylethyl)-5-methyltetrahydrofuran] was conducted in late summer/early fall at Wolfskill Experimental Orchards. Pityol is a component of the aggregation pheromone of conifer-infesting Pityophthorus species. The response of WTB to racemic trans-pityol (formulated in a polyvinylchloride plastic bubble cap release device, 40 mg load, 0.2 mg/d release rate at 20° C., product #300000272, Contech Enterprises) and pityol in combination with 3-methyl-2-buten-1-ol (release rate 15-80 mg/d, LDPE plastic pouch Contech) was tested (Table 3, Field Test 3). The four treatments were replicated in three spatial blocks and the treatments were re-randomized among the four trap stations in a block each time the traps were emptied (nearly every day).
Statistical Analyses. Analysis of treatment effects for the pouch vs. bottle experiment was done by using a sign test. (See Zar, J. H. 2010. Biostatistical Analysis. 5th ed. Pearson Prentice Hall, Englewood Cliffs, N.J.) The other four experiments were analyzed for treatment effect by using Friedman's non-parametric analysis of variance. Id. In all experiments, males and females were analyzed separately. All treatments within experiments yielding a significant treatment effect were compared by using an a posteriori Nemenyi test with experimentwise α=0.05. Id. For all experiments, differences among proportions of female WTB responding to treatments were analyzed by comparing 95% confidence intervals determined with the Clopper-Pearson method. Id.

WTB [3] = assay: Trap type: clear sticky panel vs 4-unit Lindgren funnel traps baited with X; type: in vivo, Pityophthorus juglandis; details: for trap catches, female WTB / trap catches, male WTB: 5 mg/d, 15 ml load
Procedure: In another set of experiments, the response of WTB to clear sticky panel traps and 4-unit Lindgren funnel traps was tested. Both were baited with 3-methyl-2-buten-1-ol (5 mg/d, 15 ml load). The clear plexiglass panel traps were coated with Stikem Special (Seabright Labs, Emeryville, Calif.). The experiment was conducted in late spring in a native riparian stand of J. hindsii at Shadow Cliffs Regional Park, Alameda Co., Calif. The pairs of traps were hung at a height of 3 m in the crowns of J. hindsii and arranged in six spatial blocks. Treatments were re-randomized among the trap stations each time that the traps were emptied (approx. weekly, after periodic WTB flights). Trap catches of males and females were normalized by the available trapping surface area for each trap type.
as §1

P. juglandis = assay: GC-EAD (electroantennal detection) of volatile extract; design: species or system Pityophthorus juglandis; details: extract of J. hindsii with male and female P. juglandis feeding 45 hr
Procedure: Gas Chromatography-Electroantennal Detection (GC-EAD). GC-EAD analysis was performed on the extract of walnut (Juglans hindsii) with male and female P. juglandis feeding for 45 hr (pentane extract (7)). The sample was analyzed with an HP5890 GC with the following conditions: DB-5 column 30 m×0.32, oven 50° C. for 1 min, temperature programmed at 20° C./min to a final temperature of 280° C.

WTB [4] = assay: Trap height: 4-unit Lindgren funnel traps baited with X; type: in vivo, Pityophthorus juglandis; details: for trap catches, female WTB / trap catches, male WTB: 15 to 80 mg/d
Procedure: In another experiment, the effect of trap height on the flight response of WTB was also tested with 4-unit Lindgren funnel traps at Wolfskill Experimental Orchards from late summer to early fall. The traps were each baited with the commercial version of 3-methyl-2-buten-1-ol (15 to 80 mg/d, Contech pouch) and placed at 45, 123, 199, and 271 cm (hereafter 0.5, 1.2, 2.0, and 2.7 m) from the orchard floor (measured from the floor to the middle of the trap). Traps were attached to individual 3 m metal conduit poles by using a thick piece of wire threaded through a hole drilled in the conduit pole and the eyebolt attached to the top of the funnel trap. (See Seybold, S. J., Dallara, P. L., Hishinuma, S. M., and Flint, M. L. Detecting and Identifying the Walnut Twig Beetle: Monitoring Guidelines for the Invasive Vector of Thousand Cankers Disease of Walnut, University of California Agriculture and Natural Resources, Statewide Integrated Pest Management Program, 11 pp., Apr. 30, 2012.) Three blocks of treatments were installed, trap catches were collected daily during periods of high flight activity, and the treatments were re-randomized among the four trap stations within a block each time that the traps were emptied.
as §1

[5] = X 15-80 mg/d, pityol 0.2 mg/d, N=93

**Q.** CC(C)=CCO [X, 3-methyl-2-buten-1-ol] was tested. Which “proportion of females responding” value (WTB [1]; clear plexiglass panel trap at 2 m) did it give?
**A.** 0.68

**Q.** And the “proportion of females responding” value (WTB [1]; clear plexiglass panel trap at 3 m)?
**A.** 0.64

**Q.** What about the “proportion of females responding” value (WTB [1]; clear plexiglass panel trap at 4 m) of the same molecule?
**A.** 0.72

**Q.** And the “proportion of females responding” value (WTB [2])?
**A.** 0.80

**Q.** What about the “trap catches, female WTB” value (WTB [2]; [5]) of the same molecule?
**A.** 2100

**Q.** And the “trap catches, male WTB” value (WTB [2]; [5])?
**A.** 539

**Q.** And the “trap catches, female WTB” value (WTB [3]; 4-unit Lindgren funnel traps)?
**A.** 160

**Q.** What about the “trap catches, male WTB” value (WTB [3]; 4-unit Lindgren funnel traps) of the same molecule?
**A.** 110

**Q.** And the “trap catches, female WTB” value (WTB [3]; clear sticky panel traps)?
**A.** 449

**Q.** And the “trap catches, male WTB” value (WTB [3]; clear sticky panel traps)?
**A.** 216

**Q.** What about the “proportion of females responding” value (WTB [3]; funnel traps) of the same molecule?
**A.** 0.59

**Q.** And the “proportion of females responding” value (WTB [3]; sticky traps)?
**A.** 0.67

**Q.** What about the “antennal activity by GC-EAD” value (P. juglandis) of the same molecule?
**A.** antenally active

**Q.** And the “proportion of females responding” value (WTB [4]; 0.5 m trap)?
**A.** 0.76

**Q.** What about the “trap catches, female WTB” value (WTB [4]; 0.5 m trap) of the same molecule?
**A.** 392

**Q.** What about the “trap catches, male WTB” value (WTB [4]; 0.5 m trap) of the same molecule?
**A.** 125

**Q.** What about the “proportion of females responding” value (WTB [4]; 1.2 m trap) of the same molecule?
**A.** 0.77

**Q.** And the “trap catches, female WTB” value (WTB [4]; 1.2 m trap)?
**A.** 469

**Q.** And the “trap catches, male WTB” value (WTB [4]; 1.2 m trap)?
**A.** 139

**Q.** And the “proportion of females responding” value (WTB [4]; 2.0 m trap)?
**A.** 0.77

**Q.** And the “trap catches, female WTB” value (WTB [4]; 2.0 m trap)?
**A.** 875

**Q.** What about the “trap catches, male WTB” value (WTB [4]; 2.0 m trap) of the same molecule?
**A.** 265

**Q.** What about the “proportion of females responding” value (WTB [4]; 2.7 m trap) of the same molecule?
**A.** 0.77

**Q.** And the “trap catches, female WTB” value (WTB [4]; 2.7 m trap)?
**A.** 757

**Q.** And the “trap catches, male WTB” value (WTB [4]; 2.7 m trap)?
**A.** 225
